Here are results for six molecules from US20030114354A1, “Polynucleotide encoding a novel potassium channel with homology to the ether-a-go-go family, HEAG2” (priority 2001, published 2003).

One experiment concerns the target T1, hEAG2 (Homo sapiens, UniProt Q8NCM2).
T1 construct: The complete open reading frame of HEAG2 cDNA was cloned into an Invitrogen native expression Gateway entry vector; expressed in transfected cells; host or cells: CHO cells, transient co-transfection with GFP DNA (Lipofectamine Plus)
T1 sequence (Q8NCM2 1-988): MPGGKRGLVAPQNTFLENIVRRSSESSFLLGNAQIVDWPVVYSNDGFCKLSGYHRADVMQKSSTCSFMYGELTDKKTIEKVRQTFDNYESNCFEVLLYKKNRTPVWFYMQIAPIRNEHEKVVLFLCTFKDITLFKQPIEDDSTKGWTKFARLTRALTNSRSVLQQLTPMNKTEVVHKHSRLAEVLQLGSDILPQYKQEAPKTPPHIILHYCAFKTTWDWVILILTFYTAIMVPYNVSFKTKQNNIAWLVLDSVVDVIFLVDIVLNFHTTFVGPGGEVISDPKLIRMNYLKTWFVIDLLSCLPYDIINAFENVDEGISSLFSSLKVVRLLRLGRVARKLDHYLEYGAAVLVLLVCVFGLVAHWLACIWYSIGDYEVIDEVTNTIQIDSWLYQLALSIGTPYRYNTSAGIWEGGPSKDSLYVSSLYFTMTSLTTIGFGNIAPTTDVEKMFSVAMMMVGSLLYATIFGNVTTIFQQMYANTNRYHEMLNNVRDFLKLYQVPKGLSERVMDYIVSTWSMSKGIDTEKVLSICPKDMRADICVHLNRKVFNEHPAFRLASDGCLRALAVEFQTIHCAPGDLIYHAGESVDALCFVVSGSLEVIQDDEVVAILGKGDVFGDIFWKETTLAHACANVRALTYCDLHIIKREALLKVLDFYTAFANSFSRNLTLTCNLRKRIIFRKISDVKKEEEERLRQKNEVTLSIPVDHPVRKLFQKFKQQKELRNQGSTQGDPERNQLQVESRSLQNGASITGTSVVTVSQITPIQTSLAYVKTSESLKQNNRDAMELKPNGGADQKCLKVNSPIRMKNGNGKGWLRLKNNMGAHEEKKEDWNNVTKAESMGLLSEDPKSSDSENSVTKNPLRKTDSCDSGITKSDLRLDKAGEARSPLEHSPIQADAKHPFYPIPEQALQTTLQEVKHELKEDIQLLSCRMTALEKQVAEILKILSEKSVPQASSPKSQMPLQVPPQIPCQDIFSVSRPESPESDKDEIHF
Nature of the experiment: Whole cell electrophysiology of hEAG2 and GFP cotransfected CHO cells. In kind it is cell-based. The protocol:
CHO cells were plated in growth medium at 10% (1.2×10^5 cells/dish) and 20% (2.4×10^5 cells/dish) confluence in poly-lysine coated 35 mm dishes. After 24 hours, the growth medium was removed, and cells were rinsed with Optimem (Invitrogen # 31985-070), then refed 0.8 ml Optimem. Cells were transiently co-transfected with 0.5 ug hEAG2 DNA in the pDEST vector, and 0.5 ug of GFP DNA using Lipofectamine Plus (Invitrogen # 10964-013). Three hours post transfection, the transfection mix was removed, and cells were refed with 2 ml growth medium. Twenty four hours post transfection, cells were again refed 2 ml fresh growth medium. Cells were used in experiments 24-72 hrs post transfection. Control experiments were performed in CHO cells transiently transfected with 1 μg of GFP DNA. CHO growth medium is Iscove's medium (Invitrogen #12440)+10% FBS, 1× non-essential amino acids(Invitrogen #12383-014) and 1× HT Supplement (Invitrogen #11067-030). All chemicals were purchased from Sigma Chemicals, St. Louis Mo. The internal solution contained (in mM): KCl 130, MgCl2 1, CaCl2 1, HEPES 10, EGTA 10, and was titrated to a pH of 7.2. […] The bath solution contained (in mM) NaCl 140, KCl 4, MgCl2 1, CaCl2 1.8, HEPES 10, Glucose 10, and was titrated to a pH of 7.4. For some experiments the bath solution was modified by the addition of 1 or 5 mM BaCl2, by changing the concentration of MgCl2 to 0 or 10 mM or by reducing NaCl to 104 mM and increasing KCl to 40 mM. During data recording, cells were constantly superfused with bath solution delivered through a fused silica perfusion tip, internal diameter […]. Solution changes were accomplished through the use of a […]16 multichannel perfusion system from AutoMate Scientific, San Francisco Calif. Currents were recorded on an EPC-9 amplifier (HEKA Electronik, Lambrecht/Pfalz, Germany), controlled through the Pulse software package. Currents were sampled at 10 kHz and filtered at 3.3 kHz. Pipettes were constructed from thin walled borosilicate capillary tubing (Warner Instruments Corp., Hamden Conn.), and pulled to a resistance of 1.5-3 MΩ on a P-97 micropipette puller (Sutter Instrument Co., Novato Calif.). All experiments were conducted at 20° C. Following the establishment of a Gigaohm seal and whole cell access, cells were held at -80 mV. […] All stimulation protocols were applied at 0.1 Hz.

The next experiment relates to Human lung fibroblasts. Briefly: Human lung fibroblast proliferation assay (Alamar Blue). In kind it is cell-based. The settings on record: 3 days in basal medium. The protocol: Human lung fibroblasts are obtained from Clonetics (San Diego, Calif.) and maintained in growth media from Clonetics. Dermal microvascular endothelial cells are obtained from Cell Applications (San Diego, Calif.). For proliferation assays, the human lung fibroblasts and dermal microvascular endothelial cells can be cultured at 5,000 cells/well in a 96-well plate for one day in growth medium. The cells are then incubated for one day in 0.1% BSA basal medium. After replacing the medium with fresh 0.1% BSA medium, the cells are incubated with the test proteins for 3 days. Alamar Blue (Alamar Biosciences, Sacramento, Calif.) is added to each well to a final concentration of 10%. The cells are incubated for 4 hr. Cell viability is measured by reading in a CytoFluor fluorescence reader. For the PGE2 assays, the human lung fibroblasts are cultured at 5,000 cells/well in a 96-well plate for one day. […]

The test system of experiment [1] is nigral dopaminergic neurons. The settings on record: gel foam implants in the striatum; cited from earlier work.
For experiment [2] the following is noted: picogram quantities, female recipients; cited from earlier work.
In a further experiment the test system is Eag proteins. The conditions noted are these: intracellular Ca++; read-out: half-maximal inhibition concentration; cited from earlier work.

Consider `[K+]` [K^+, KCl], for which the tail reversal potential result on hEAG2 (increased extracellular K^+ (KCl 40 mM, NaCl 104 mM)) was “approximately −40 mV”.

Take “FGF-2: Fibroblast growth factor 2 (basic FGF), comparator protein for the polypeptides of the invention”: the “stimulation of growth of human lung fibroblasts, concentration showing stimulation” value with Human lung fibroblasts lay in the range of 10 to 2500 ng/mL. Also, in experiment [1], the “protection of nigral dopaminergic neurons from toxicity associated with MPTP exposure” value was “near complete protection”.

Turning to `C[C@@]12C=CC[C@H]1[C@@H]1CCC3=CC(=O)CC[C@]3(C)[C@H]1CC2` [androstadienone], the “nervousness, tension and other negative feelings” value in experiment [2] is recorded as “significant reduction”.

As for `[Ca+2]` [Ca++], the IC50 with Eag proteins is approximately 100 nM.

For `[Ba+2].[Cl-].[Cl-]` [Ba^++, BaCl2], the steady state current result at hEAG2 (addition of Ba^++ to the extracellular solution (bath + 1 or 5 mM BaCl2), depolarization to +40 mV for 1 sec, 20° C) was “apparent reduction”.

Consider `[Mg+2]` [Mg^++, MgCl2], for which the “activation rate of the current” value at hEAG2 (Mg^++ free bath (MgCl2 0 mM)) is “much faster”; on hEAG2 (increased bath Mg^++ (MgCl2 10 mM)), “dramatically slowed”.
